Results taken from PMC11191095, “QSAR Reveals Decreased Lipophilicity of Polar Residues Determines the Selectivity of Antimicrobial Peptide Activity” (ACS Omega, 2024).
Where a SMILES comes first, the peptide text is derived from it.

Assays:
Test in all cases: microbe, parasite or virus in culture
E. coli LEC001 = assay type: cell-based, Escherichia coli; settings: E. coli LEC001 (R)
Procedure, shortened: (§1)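 Peptides 128→2 μg/mL, 2-fold series; inoculum ~5 × 10^5 CFU/mL from overnight culture (OD600 0.01, mixed 1:1). MHB non-cation-adjusted for bacteria, RPMI 1640 + 2% glucose for fungi. 37 °C, 20 h, OD600. MIC50/MIC90 at 50%/90% inhibition; n ≥ 3.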

E. coli NCTC 12923 = assay type: cell-based, Escherichia coli; settings: E. coli NCTC 12923 (S)
Procedure, shortened: as §1

P. aeruginosa NCTC 13437 = assay type: cell-based, Pseudomonas aeruginosa; settings: P. aeruginosa NCTC 13437 (R)
Procedure, shortened: as §1

A. baumannii ATCC 17978 = assay type: cell-based, Acinetobacter baumannii; settings: A. baumannii ATCC 17978 (S)
Procedure, shortened: as §1

A. baumannii AYE = assay type: cell-based, Acinetobacter baumannii; settings: A. baumannii AYE (R)
Procedure, shortened: as §1

K. pneumoniae M6 = assay type: cell-based, Klebsiella pneumoniae; settings: K. pneumoniae M6 (S)
Procedure, shortened: as §1

K. pneumoniae NCTC 13368 = assay type: cell-based, Klebsiella pneumoniae; settings: K. pneumoniae NCTC 13368 (R)
Procedure, shortened: as §1

[1] = test system: S. aureus (MRSA) NCTC 13616; assay type: cell-based, Staphylococcus aureus; settings: S. aureus (MRSA) NCTC 13616 (R)
Procedure, shortened: as §1

S. aureus (MRSA) USA300 = assay type: cell-based, Staphylococcus aureus; settings: S. aureus (MRSA) USA300 (R)
Procedure, shortened: as §1

[2] = test system: S. aureus (MSSA) ATCC 9144; assay type: cell-based, Staphylococcus aureus; settings: S. aureus (MSSA) ATCC 9144 (S)
Procedure, shortened: as §1

C. auris TDG 1912 = assay type: cell-based, Candida auris; settings: C. auris TDG 1912
Procedure, shortened: as §1

C. albicans NCPF 3281 = assay type: cell-based; settings: C. albicans NCPF 3281
Procedure, shortened: as §1

C. glabrata NCPF 8018 = assay type: cell-based; settings: C. glabrata NCPF 8018
Procedure, shortened: as §1

C. krusei NCPF 3876 = assay type: cell-based; settings: C. krusei NCPF 3876
Procedure, shortened: as §1

[3] = test system: C. parapsilosis NCPF 3209; assay type: cell-based; settings: C. parapsilosis NCPF 3209
Procedure, shortened: as §1

C. tropicalis NCPF 8760 = assay type: cell-based; settings: C. tropicalis NCPF 8760
Procedure, shortened: as §1

[4] = MHB, 37 °C, 20 h, OD600, min. three biological repeats
[5] = MHB, ~5×10^5 CFU/mL, 37 °C, 20 h, OD600, min. three biological repeats
[6] = 50% growth inhibition, RPMI 1640 + 2% glucose, 37 °C, 20 h, OD600
[7] = 90% growth inhibition, RPMI 1640 + 2% glucose, 37 °C, 20 h, OD600
[8] = 50% growth inhibition, RPMI 1640 + 2% glucose, 37 °C, 20 h
[9] = 90% growth inhibition, RPMI 1640 + 2% glucose, 37 °C, 20 h

CC[C@H](C)[C@H](NC(=O)[C@H](CCCCN)NC(=O)[C@H](CC(C)C)NC(=O)[C@H](C)NC(=O)[C@H](C)NC(=O)[C@H](CCCCN)NC(=O)[C@H](CC(C)C)NC(=O)[C@H](C)NC(=O)[C@@H](N)CCCCN)C(=O)NCC(=O)N[C@@H](C)C(=O)N[C@@H](CC(N)=O)C(N)=O [CPF-P3-12a] (H-KALKAALKIGAN-NH2)
Modal MIC (E. coli LEC001; [4]): > 128 µg/mL | Modal MIC (E. coli LEC001; shown in µM): > 103.8 µM | Modal MIC (E. coli NCTC 12923; [5]): > 128 µg/mL | Modal MIC (E. coli NCTC 12923; shown in µM): > 103.8 µM | Modal MIC (P. aeruginosa NCTC 13437; [4]): > 128 µg/mL | Modal MIC (P. aeruginosa NCTC 13437; shown in µM): > 103.8 µM | Modal MIC (A. baumannii ATCC 17978; [4]): > 128 µg/mL | Modal MIC (A. baumannii ATCC 17978; shown in µM): > 103.8 µM | Modal MIC (A. baumannii AYE; [4]): > 128 µg/mL | Modal MIC (A. baumannii AYE; shown in µM): > 103.8 µM | Modal MIC (K. pneumoniae M6; [4]): > 128 µg/mL | Modal MIC (K. pneumoniae M6; shown in µM): > 103.8 µM | Modal MIC (K. pneumoniae NCTC 13368; [4]): > 128 µg/mL | Modal MIC (K. pneumoniae NCTC 13368; shown in µM): > 103.8 µM | Modal MIC [1, 4]: > 128 µg/mL | Modal MIC ([1]; shown in µM): > 103.8 µM | Modal MIC (S. aureus (MRSA) USA300; [4]): > 128 µg/mL | Modal MIC (S. aureus (MRSA) USA300; shown in µM): > 103.8 µM | Modal MIC [2, 4]: > 128 µg/mL | Modal MIC ([2]; shown in µM): > 103.8 µM | Modal MIC50 (C. auris TDG 1912; [6]): > 128 µg/mL | Modal MIC90 (C. auris TDG 1912; [7]): > 128 µg/mL | Modal MIC50 (C. auris TDG 1912; shown in µM): > 103.8 µM | Modal MIC90 (C. auris TDG 1912; shown in µM): > 103.8 µM | Modal MIC50 (C. albicans NCPF 3281; [8]): > 128 µg/mL | Modal MIC90 (C. albicans NCPF 3281; [9]): > 128 µg/mL | Modal MIC50 (C. albicans NCPF 3281; shown in µM): > 103.8 µM | Modal MIC90 (C. albicans NCPF 3281; shown in µM): > 103.8 µM | Modal MIC50 (C. glabrata NCPF 8018; [8]): > 128 µg/mL | Modal MIC90 (C. glabrata NCPF 8018; [9]): > 128 µg/mL | Modal MIC50 (C. glabrata NCPF 8018; shown in µM): > 103.8 µM | Modal MIC90 (C. glabrata NCPF 8018; shown in µM): > 103.8 µM | Modal MIC50 (C. krusei NCPF 3876; [8]): > 128 µg/mL | Modal MIC90 (C. krusei NCPF 3876; [9]): > 128 µg/mL | Modal MIC50 (C. krusei NCPF 3876; shown in µM): > 103.8 µM | Modal MIC90 (C. krusei NCPF 3876; shown in µM): > 103.8 µM | Modal MIC50 [3, 8]: > 128 µg/mL | Modal MIC90 [3, 9]: > 128 µg/mL | Modal MIC50 ([3]; shown in µM): > 103.8 µM | Modal MIC90 ([3]; shown in µM): > 103.8 µM | Modal MIC50 (C. tropicalis NCPF 8760; [8]): > 128 µg/mL | Modal MIC90 (C. tropicalis NCPF 8760; [9]): > 128 µg/mL | Modal MIC50 (C. tropicalis NCPF 8760; shown in µM): > 103.8 µM | Modal MIC90 (C. tropicalis NCPF 8760; shown in µM): > 103.8 µM

CC[C@H](C)[C@H](NC(=O)CNC(=O)[C@@H](N)CCCNC(=N)N)C(=O)N[C@@H](CCCNC(=N)N)C(=O)NCC(=O)N[C@@H](Cc1ccc(O)cc1)C(=O)N[C@@H](CCCCN)C(=O)NCC(=O)NCC(=O)N[C@@H](Cc1ccc(O)cc1)C(=O)N[C@@H](CS)C(=O)N[C@H](C(=O)NCC(=O)N[C@@H](CCCNC(=N)N)C(=O)N[C@@H](Cc1ccccc1)C(=O)N[C@@H](CCCCN)C(=O)N[C@@H](CCC(N)=O)C(=O)N[C@H](C(=O)N[C@@H](CS)C(=O)N[C@@H](CCCCN)C(=O)N[C@@H](CS)C(=O)N[C@@H](Cc1ccc(O)cc1)C(=O)O)[C@@H](C)O)[C@@H](C)O [OmDefB] (H-RGIRGYKGGYCTGRFKQTCKCY-OH; N-terminus and C-terminus assumed)
Modal MIC (E. coli LEC001; [4]): > 128 µg/mL | Modal MIC (E. coli LEC001; shown in µM): > 49.9 µM | Modal MIC (E. coli NCTC 12923; [5]): > 128 µg/mL | Modal MIC (E. coli NCTC 12923; shown in µM): > 49.9 µM | Modal MIC (P. aeruginosa NCTC 13437; [4]): > 128 µg/mL | Modal MIC (P. aeruginosa NCTC 13437; shown in µM): > 49.9 µM | Modal MIC (A. baumannii ATCC 17978; [4]): > 128 µg/mL | Modal MIC (A. baumannii ATCC 17978; shown in µM): > 49.9 µM | Modal MIC (A. baumannii AYE; [4]): > 128 µg/mL | Modal MIC (A. baumannii AYE; shown in µM): > 49.9 µM | Modal MIC (K. pneumoniae M6; [4]): > 128 µg/mL | Modal MIC (K. pneumoniae M6; shown in µM): > 49.9 µM | Modal MIC (K. pneumoniae NCTC 13368; [4]): > 128 µg/mL | Modal MIC (K. pneumoniae NCTC 13368; shown in µM): > 49.9 µM | Modal MIC [1, 4]: > 128 µg/mL | Modal MIC ([1]; shown in µM): > 49.9 µM | Modal MIC (S. aureus (MRSA) USA300; [4]): > 128 µg/mL | Modal MIC (S. aureus (MRSA) USA300; shown in µM): > 49.9 µM | Modal MIC [2, 4]: > 128 µg/mL | Modal MIC ([2]; shown in µM): > 49.9 µM | Modal MIC50 (C. auris TDG 1912; [6]): > 128 µg/mL | Modal MIC90 (C. auris TDG 1912; [7]): > 128 µg/mL | Modal MIC50 (C. auris TDG 1912; shown in µM): > 49.9 µM | Modal MIC90 (C. auris TDG 1912; shown in µM): > 49.9 µM | Modal MIC50 (C. albicans NCPF 3281; [8]): > 128 µg/mL | Modal MIC90 (C. albicans NCPF 3281; [9]): > 128 µg/mL | Modal MIC50 (C. albicans NCPF 3281; shown in µM): > 49.9 µM | Modal MIC90 (C. albicans NCPF 3281; shown in µM): > 49.9 µM | Modal MIC50 (C. glabrata NCPF 8018; [8]): > 128 µg/mL | Modal MIC90 (C. glabrata NCPF 8018; [9]): > 128 µg/mL | Modal MIC50 (C. glabrata NCPF 8018; shown in µM): > 49.9 µM | Modal MIC90 (C. glabrata NCPF 8018; shown in µM): > 49.9 µM | Modal MIC50 (C. krusei NCPF 3876; [8]): > 128 µg/mL | Modal MIC90 (C. krusei NCPF 3876; [9]): > 128 µg/mL | Modal MIC50 (C. krusei NCPF 3876; shown in µM): > 49.9 µM | Modal MIC90 (C. krusei NCPF 3876; shown in µM): > 49.9 µM | Modal MIC50 [3, 8]: > 128 µg/mL | Modal MIC90 [3, 9]: > 128 µg/mL | Modal MIC50 ([3]; shown in µM): > 49.9 µM | Modal MIC90 ([3]; shown in µM): > 49.9 µM | Modal MIC50 (C. tropicalis NCPF 8760; [8]): > 128 µg/mL | Modal MIC90 (C. tropicalis NCPF 8760; [9]): > 128 µg/mL | Modal MIC50 (C. tropicalis NCPF 8760; shown in µM): > 49.9 µM | Modal MIC90 (C. tropicalis NCPF 8760; shown in µM): > 49.9 µM
